Results from patent US12378278B2, “Mimetics of heparin oligosaccharides” (Board of Trustees of Michigan State University, priority 2019, dated 2025).

Assays:
[1] = target: FGF-2-heparin interaction (Homo sapiens, UniProt P09038); assay: Competition SPR on the FGF-2-heparin interaction; assay type: binding; details: FGF-2 50 nM pre-mixed with compound, biotinylated heparin on SA sensor chip
Experimental: In order to gain more insights into the structure-activity relationship between heparin and FGF-2, the competition assay was performed by the Linhardt group (FIG. 4). Biotinylated heparin was immobilized on the biosensor, and 27 pseudo-hexasaccharides (10 uM) was mixed with FGF-2 (50 nM) individually. […] For IC50 measurements, biotinylated heparin was immobilized on the SA sensor chip as described above, and FGF-2 (50 nM) was pre-mixed with different concentrations of pseudo-hexasaccharides. […] According to competition SPR results, successive fully sulfated disaccharide modules are required for potent competitive activity.

FGF-2 = FGF-2 (Homo sapiens, UniProt P09038); assay: Direct binding to immobilized FGF-2 by surface plasmon resonance (SPR); details: FGF-2 immobilized on CDH sensor chip
Sequence of FGF-2 (P09038 143-288, species assumed): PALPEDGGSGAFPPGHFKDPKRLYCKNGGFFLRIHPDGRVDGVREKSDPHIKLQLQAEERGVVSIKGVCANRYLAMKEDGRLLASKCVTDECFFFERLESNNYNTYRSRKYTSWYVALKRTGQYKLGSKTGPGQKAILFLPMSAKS
From the text: FGF-2 was immobilized on CDH sensor chip surface through EDC/NHS coupling, and fully sulfated (50), O-sulfated (50z) and N-sulfated (50m) pseudo-hexasaccharides were selected as analytes. […] The SPR results correlated well with that of heparin hexasaccharides (36, 51, 52) (Chem. Eur. J. 2006, 12 (34), 8664-8686).
FGF-2 was immobilized on sensor chip by primary amine coupling reaction. The surface of a CDH sensor chip (ForteBio, Inc., Molecular Devices, USA) was activated using freshly mixed N-hydroxysuccimide (NHS; 0.05 M) and 1-(3-(dimethylamino)propyl)-ethylcarbodiimide (EDC; 0.2 M) (1/1, v/v) in water, followed by the injection of FGF-2 (50 ug/ml) in PBS buffer. The remaining active esters were quenched by ethanolamine (1.0 M). All measurements were performed using 0.01% Tween 20 PBS buffer. Aqueous NaCl (2.0 M) was employed for regeneration to achieve baseline status.

Sequence of FGF-2-heparin interaction (P09038 143-288, species assumed): as above

`CC(=O)NCCOC1OC(C(=O)O)C(OC2OC(CO)C(OCCC(=O)NCCOC3OC(C(=O)O)C(OC4OC(COS(=O)(=O)O)C(OCCC(=O)NCCOC5OC(C(=O)O)C(OC6OC(COS(=O)(=O)O)C(OCCC(=O)O)C(O)C6NS(=O)(=O)O)C(O)C5OS(=O)(=O)O)C(O)C4NS(=O)(=O)O)C(O)C3OS(=O)(=O)O)C(O)C2NS(=O)(=O)O)C(O)C1O` (centres unmarked) [Compound 50a] gave an IC50 [1] of 10.8 µM.
Molecule `CC(=O)NCCOC1OC(C(=O)O)C(OC2OC(COS(=O)(=O)O)C(OCCC(=O)NCCOC3OC(C(=O)O)C(OC4OC(COS(=O)(=O)O)C(OCCC(=O)NCCOC5OC(C(=O)O)C(OC6OC(COS(=O)(=O)O)C(OCCC(=O)O)C(O)C6NS(=O)(=O)O)C(O)C5OS(=O)(=O)O)C(O)C4NS(=O)(=O)O)C(O)C3OS(=O)(=O)O)C(O)C2NC(C)=O)C(O)C1OS(=O)(=O)O` (centres unmarked) [Compound 50b] has an IC50 [1] of 4 µM.
Work on `CC(=O)NCCOC1OC(C(=O)O)C(OC2OC(COS(=O)(=O)O)C(OCCC(=O)NCCOC3OC(C(=O)O)C(OC4OC(COS(=O)(=O)O)C(OCCC(=O)NCCOC5OC(C(=O)O)C(OC6OC(COS(=O)(=O)O)C(OCCC(=O)O)C(O)C6NC(C)=O)C(O)C5OS(=O)(=O)O)C(O)C4NS(=O)(=O)O)C(O)C3OS(=O)(=O)O)C(O)C2NS(=O)(=O)O)C(O)C1OS(=O)(=O)O` (centres unmarked) [Compound 50r] yielded an IC50 [1] of 3.5 µM.
For `CC(=O)NCCOC1OC(C(=O)O)C(OC2OC(COS(=O)(=O)O)C(OCCC(=O)NCCOC3OC(C(=O)O)C(OC4OC(COS(=O)(=O)O)C(OCCC(=O)NCCOC5OC(C(=O)O)C(OC6OC(COS(=O)(=O)O)C(OCCC(=O)O)C(O)C6NC(C)=O)C(O)C5OS(=O)(=O)O)C(O)C4NC(C)=O)C(O)C3OS(=O)(=O)O)C(O)C2NC(C)=O)C(O)C1OS(=O)(=O)O` (centres unmarked) [Compound 50z], the Kd (FGF-2; compound as analyte) was 0.94 µM.
In the case of “N-Acetamidoethyl O-(4-O-carboxyethyl-2-deoxy-2-sulfoamino-1-thio-α-D-glucopyranoside)-(1→4)-O-(6-O-carboxyl-1-thio-α-L-idopyranosiduronate)-(1→4)-O-(2-deoxy-2-sulfoamino-1-thio-α-D-glucopyranoside)-(1→4)-O-(6-O-carboxyl-1-thio-α-L-idopyranosiduronate)-(1→4)-O-(2-deoxy-2-sulfoamino-1-thio-α-D-glucopyranoside)-(1→4)-O-(6-O-carboxyl-1-thio-α-L-idopyranosiduronate) [Compound 50m]”, the “binding to FGF-2 (in words)” value (FGF-2) is reported as “weak signal”.
